These results are taken from ChEMBL document CHEMBL1138701, “Anti-AIDS agents. Part 62: anti-HIV activity of 2'-substituted 4-methyl-3',4'-di-O-(-)-camphanoyl-(+)-cis-khellactone (4-methyl DCK) analogs” (Bioorg Med Chem Lett, 2004).

For orientation: IC50 means the concentration at which inhibition is half-maximal. A high value points to weaker potency in that assay. As usually defined, the EC50 is the concentration giving half of the maximal effect.

For one data set, the system named is H9. Nature of the data set: Concentration required to inhibit 50% growth of uninfected H9 cells. It counts as functional, cell-based. The note with it: Homo sapiens.
Data set [1] has as its system Human immunodeficiency virus. The experiment in a line: Concentration required to inhibit 50% of HIV (human immunodeficiency virus) replication. The format is functional, organism-based. Particulars: Human immunodeficiency virus 1.
A short description of data set [2]: Therapeutic index expressed as ratio of IC50 for 50% growth inhibition to EC50 for 50% replication inhibition. Particulars: human, H9 cells; read-out: TI. It counts as cell-based.

In the data set with H9, `CCCC1(C)Oc2ccc3c(C)cc(=O)oc3c2[C@@H](OC(=O)C23CCC(C)(C(=O)O2)C3(C)C)[C@H]1OC(=O)C12CCC(C)(C(=O)O1)C2(C)C` (stereo partly specified) gave a half-maximal inhibitory concentration (IC50) of more than 37.6 µM. For the same compound, the concentration giving a half-maximal response (EC50) in data set [1] was 6.4 µM. Besides, in data set [2], the selectivity ratio was more than 5.9.
In the data set with H9, `CC1(C)Oc2ccc3ccc(=O)oc3c2[C@@H](OC(=O)C23CCC(C)(C(=O)O2)C3(C)C)[C@H]1OC(=O)C12CCC(C)(C(=O)O1)C2(C)C` (stereo partly specified) showed an IC50 of more than 16.1 µM. In data set [1], this compound came in with a 50% effective concentration (EC50) of 0.049 µM. Besides, in data set [2], the selectivity ratio was more than 328.
In the same order, the values of `CCC1(C)Oc2ccc3c(C)cc(=O)oc3c2[C@@H](OC(=O)C23CCC(C)(C(=O)O2)C3(C)C)[C@H]1OC(=O)C12CCC(C)(C(=O)O1)C2(C)C` (stereo partly specified) are more than 38.4 µM, 0.22 µM and more than 175.
Compound `Cc1cc(=O)oc2c3c(ccc12)OC[C@H](OC(=O)C12CCC(C)(C(=O)O1)C2(C)C)[C@@H]3OC(=O)C12CCC(C)(C(=O)O1)C2(C)C` (stereo partly specified) yielded an IC50 with H9 of more than 41.1 µM. For the same compound, the EC50 in data set [1] was 6.9 µM. In data set [2], the selectivity ratio was more than 6.
In the same order, the values of `CCC1(CC)Oc2ccc3c(C)cc(=O)oc3c2[C@@H](OC(=O)C23CCC(C)(C(=O)O2)C3(C)C)[C@H]1OC(=O)C12CCC(C)(C(=O)O1)C2(C)C` (stereo partly specified) are more than 37.6 µM, 2.84 µM and more than 13.2.
`Cc1cc(=O)oc2c3c(ccc12)OC(C)(C)[C@H](OC(=O)C12CCC(C)(C(=O)O1)C2(C)C)[C@@H]3OC(=O)C12CCC(C)(C(=O)O1)C2(C)C` (stereo partly specified) showed an IC50 in the data set on H9 of more than 38.9 µM. The compound also registered an EC50 in data set [1] of 0.0059 µM. Also, in data set [2], the selectivity ratio is more than 6600.
In the data set with H9, `Cc1cn([C@H]2C[C@H](N=[N+]=[N-])[C@@H](CO)O2)c(=O)[nH]c1=O` [ZIDOVUDINE] showed an IC50 of 1870 µM. Besides, the EC50 in data set [1] came out at 0.04 µM. Moreover, the selectivity ratio in data set [2] was found to be 39000.
